Results reported in ChEMBL document CHEMBL3867470, “Synthesis and biological evaluation of heteroaryl styryl sulfone derivatives as anticancer agents” (Bioorg Med Chem Lett, 2016).
Values belong to the compound of their own block, whether it stands above or below them. The source made the active and inactive calls. The rule behind the calls is not given here.

Experiments:
[1] = Antiproliferative activity against human A2780 cells measured after 72 hrs by MTT assay; assay type: functional; details: A2780, 72 h
[2] = Antiproliferative activity against human HCT116 cells measured after 72 hrs by MTT assay; assay type: functional; details: HCT-116, 72 h
[3] = Cell cycle arrest in human A2780 cells assessed as accumulation at Sub-G1 phase at GI50 measured after 24 hrs by propidium iodide staining-based FACS analysis (reference value: 2%); assay type: functional
[4] = Cell cycle arrest in human A2780 cells assessed as accumulation at S-phase at GI50 measured after 24 hrs by propidium iodide staining-based FACS analysis (reference value: 19%); assay type: functional
[5] = Cell cycle arrest in human A2780 cells assessed as accumulation at G2/M-phase at GI50 measured after 24 hrs by propidium iodide staining-based FACS analysis (reference value: 26%); assay type: functional
[6] = Cell cycle arrest in human A2780 cells assessed as accumulation at G1-phase at GI50 measured after 24 hrs by propidium iodide staining-based FACS analysis (reference value: 53%); assay type: functional
[7] = Cell cycle arrest in human A2780 cells assessed as accumulation at Sub-G1 phase at 5 times GI50 measured after 24 hrs by propidium iodide staining-based FACS analysis (reference value: 2%); assay type: functional
[8] = Cell cycle arrest in human A2780 cells assessed as accumulation at S-phase at 5 times GI50 measured after 24 hrs by propidium iodide staining-based FACS analysis (reference value: 19%); assay type: functional
[9] = Cell cycle arrest in human A2780 cells assessed as accumulation at G2/M-phase at 5 times GI50 measured after 24 hrs by propidium iodide staining-based FACS analysis (reference value: 26%); assay type: functional
[10] = Cell cycle arrest in human A2780 cells assessed as accumulation at G1-phase at 5 times GI50 measured after 24 hrs by propidium iodide staining-based FACS analysis (reference value: 53%); assay type: functional
A2780 [11] = experiment: Induction of apoptosis in human A2780 cells assessed as viable cells at GI50 measured after 24 hrs by Annexin V/propidium iodide staining-based FACS analysis (reference value: 92.6%); assay type: functional
A2780 [12] = experiment: Induction of apoptosis in human A2780 cells assessed as early apoptotic cells at GI50 measured after 24 hrs by Annexin V/propidium iodide staining-based FACS analysis (reference value: 2.81%); assay type: functional
A2780 [13] = experiment: Induction of apoptosis in human A2780 cells assessed as late apoptotic cells at GI50 measured after 24 hrs by Annexin V/propidium iodide staining-based FACS analysis (reference value: 4.23%); assay type: functional
A2780 [14] = experiment: Induction of apoptosis in human A2780 cells assessed as necrotic cells at GI50 measured after 24 hrs by Annexin V/propidium iodide staining-based FACS analysis (reference value: 0.34%); assay type: functional
A2780 [15] = experiment: Induction of apoptosis in human A2780 cells assessed as viable cells at 5 times GI50 measured after 24 hrs by Annexin V/propidium iodide staining-based FACS analysis (reference value: 92.6%); assay type: functional
A2780 [16] = experiment: Induction of apoptosis in human A2780 cells assessed as early apoptotic cells at 5 times GI50 measured after 24 hrs by Annexin V/propidium iodide staining-based FACS analysis (reference value: 2.81%); assay type: functional
A2780 [17] = experiment: Induction of apoptosis in human A2780 cells assessed as late apoptotic cells at 5 times GI50 measured after 24 hrs by Annexin V/propidium iodide staining-based FACS analysis (reference value: 4.23%); assay type: functional
A2780 [18] = experiment: Induction of apoptosis in human A2780 cells assessed as necrotic cells at 5 times GI50 measured after 24 hrs by Annexin V/propidium iodide staining-based FACS analysis (reference value: 0.34%); assay type: functional
A2780 [19] = experiment: Induction of apoptosis in human A2780 cells assessed as downregulation of Mcl1 level at 200 to 1000 nM measured after 24 hrs by Western blot analysis; assay type: functional, cell-based
A2780 [20] = experiment: Induction of apoptosis in human A2780 cells assessed as cleaved PARP level at 200 to 1000 nM measured after 24 hrs by Western blot analysis; assay type: functional, cell-based
[21] = target: Serine/threonine-protein kinase PLK1 (Homo sapiens) (UniProt P53350); details: A2780, 200 to 1000 nM
Chain of Serine/threonine-protein kinase PLK1 (Homo sapiens) (P53350 whole entry): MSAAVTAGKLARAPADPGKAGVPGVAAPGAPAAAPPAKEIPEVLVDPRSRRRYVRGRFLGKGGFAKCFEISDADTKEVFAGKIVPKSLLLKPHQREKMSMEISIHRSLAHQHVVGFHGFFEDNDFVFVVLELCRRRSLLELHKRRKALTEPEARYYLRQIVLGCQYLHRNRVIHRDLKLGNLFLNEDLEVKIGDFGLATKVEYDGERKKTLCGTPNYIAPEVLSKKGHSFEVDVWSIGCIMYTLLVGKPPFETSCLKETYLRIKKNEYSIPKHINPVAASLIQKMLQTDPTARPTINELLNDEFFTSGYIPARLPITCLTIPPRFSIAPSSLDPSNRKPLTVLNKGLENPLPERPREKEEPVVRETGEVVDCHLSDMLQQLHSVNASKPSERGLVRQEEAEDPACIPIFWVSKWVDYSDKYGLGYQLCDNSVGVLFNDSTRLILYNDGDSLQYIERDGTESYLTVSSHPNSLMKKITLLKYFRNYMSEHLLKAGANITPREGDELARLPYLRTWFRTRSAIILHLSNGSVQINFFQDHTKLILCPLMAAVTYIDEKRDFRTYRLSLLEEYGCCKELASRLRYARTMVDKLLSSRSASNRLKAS
Description: Inhibition of Plk1 in human A2780 cells assessed as reduction in CDC25C phosphorylation at Ser198 residue at 200 to 1000 nM measured after 24 hrs by Western blot analysis

[22] = Antiproliferative activity against human MCF7 cells measured after 72 hrs by MTT assay; assay type: functional; details: MCF7, 72 h
[23] = Antiproliferative activity against human HT-29 cells measured after 72 hrs by MTT assay; assay type: functional; details: HT-29, 72 h
[24] = Antiproliferative activity against human COLO205 cells measured after 72 hrs by MTT assay; assay type: functional; details: COLO 205, 72 h
[25] = Antiproliferative activity against human KM12 cells measured after 72 hrs by MTT assay; assay type: functional; details: KM12, 72 h
[26] = Antiproliferative activity against human PANC1 cells measured after 72 hrs by MTT assay; assay type: functional; details: PANC-1, 72 h
[27] = Antiproliferative activity against human PC3 cells measured after 72 hrs by MTT assay; assay type: functional; details: PC-3, 72 h
[28] = Antiproliferative activity against human LNCAP cells measured after 72 hrs by MTT assay; assay type: functional
[29] = Antiproliferative activity against human C4-2B cells measured after 72 hrs by MTT assay; assay type: functional; details: LNCaP C4-2B
[30] = Antiproliferative activity against human 22Rv1 cells measured after 72 hrs by MTT assay; assay type: functional, CWR22R; details: 22Rv1, 72 h
[31] = Antiproliferative activity against human DU145 cells measured after 72 hrs by MTT assay; assay type: functional; details: DU-145, 72 h
[32] = Antiproliferative activity against human DaOY cells measured after 72 hrs by MTT assay; assay type: functional
[33] = Cytotoxicity against human WI38 cells assessed as reduction in cell viability measured after 72 hrs by MTT assay; assay type: toxicity, cell-based, WI-38
[34] = Cytotoxicity against human MRC5 cells assessed as reduction in cell viability measured after 72 hrs by MTT assay; assay type: toxicity, cell-based
[35] = target: Serine/threonine-protein kinase PLK1 (Homo sapiens) (UniProt P53350); experiment: Inhibition of Plk1 in human A2780 cells assessed as reduction in CDC25C phosphorylation at Ser198 residue at 300 to 3000 nM measured after 24 hrs by Western blot analysis; assay type: cell-based
A2780 [36] = experiment: Induction of apoptosis in human A2780 cells assessed as downregulation of Mcl1 level at 300 to 3000 nM measured after 24 hrs by Western blot analysis; assay type: functional, cell-based
A2780 [37] = experiment: Induction of apoptosis in human A2780 cells assessed as cleaved PARP level at 300 to 3000 nM measured after 24 hrs by Western blot analysis; assay type: functional, cell-based

Compound: COc1cc(OC)c(/C=C/S(=O)(=O)Nc2cnc(Cl)cn2)c(OC)c1
GI50 [1]: > 10000 nM
GI50 [2]: > 10000 nM

Compound: COc1cc(OC)c(/C=C/S(=O)(=O)Nc2ccc(Cl)nc2)c(OC)c1
GI50 [1]: 2600 nM
GI50 [2]: 5640 nM

Compound: CCOc1cnc(CS(=O)(=O)/C=C/c2c(OC)cc(OC)cc2OC)cn1
GI50 [1]: 540 nM
GI50 [2]: 1280 nM

Compound: COc1cc(OC)c(/C=C/S(=O)(=O)Nc2ccc(OC)nc2)c(OC)c1
GI50 [1]: 380 nM
GI50 [2]: 1000 nM

Compound: COc1cc(OC)c(/C=C/S(=O)(=O)Cc2cnc(OC)c(OC)c2)c(OC)c1
GI50 [1]: 930 nM
GI50 [2]: 2810 nM

Compound: COc1cc(OC)c(/C=C/S(=O)(=O)Nc2ccc(Cl)cc2)c(OC)c1
GI50 [1]: > 10000 nM
GI50 [2]: > 10000 nM

Compound: COc1cc(OC)c(/C=C/S(=O)(=O)Cc2cnc(OC)cn2)c(OC)c1
GI50 [1]: 490 nM
GI50 [2]: 950 nM

Compound: COc1ccc(NS(=O)(=O)/C=C/c2c(OC)cc(OC)cc2OC)cc1
GI50 [1]: 10 nM
GI50 [2]: 10 nM

inhibition [21]: Active
Compound: COc1cc(OC)c(/C=C/S(=O)(=O)Cc2ccc(OC)c(NCC(=O)[O-])c2)c(OC)c1.[Na+] [RIGOSERTIB SODIUM]
GI50 [1]: 40 nM
GI50 [2]: 60 nM
Activity [3]: 5%
Activity [4]: 19%
Activity [5]: 28%
Activity [6]: 48%
Activity [7]: 30%
Activity [8]: 17%
Activity [9]: 33%
Activity [10]: 20%
Activity (A2780 [11]): 91.82%
Activity (A2780 [12]): 5.16%
Activity (A2780 [13]): 2.75%
Activity (A2780 [14]): 0.25%
Activity (A2780 [15]): 69.9%
Activity (A2780 [16]): 27.41%
Activity (A2780 [17]): 2.25%
Activity (A2780 [18]): 0.29%
Activity (A2780 [19]): Active
Activity (A2780 [20]): Active

Compound: CNc1ncc(OC)c(CS(=O)(=O)/C=C/c2c(OC)cc(OC)cc2OC)n1
GI50 [1]: 7540 nM
GI50 [2]: > 10000 nM

Compound: CCOc1cc(OC)cc(OC)c1/C=C/S(=O)(=O)Nc1ccc(OC)nc1
GI50 [1]: 470 nM
GI50 [2]: 420 nM

Compound: COc1cc(OC)c(/C=C/S(=O)(=O)Cc2nc(Cl)ncc2OC)c(OC)c1
GI50 [1]: > 10000 nM
GI50 [2]: > 10000 nM

inhibition [35]: Active
Compound: CCOc1ccc(NS(=O)(=O)/C=C/c2c(OC)cc(OC)cc2OC)cc1
GI50 [1]: 310 nM
GI50 [2]: 350 nM
GI50 [22]: 530 nM
GI50 [23]: 580 nM
GI50 [24]: 590 nM
GI50 [25]: 340 nM
GI50 [26]: 300 nM
GI50 [27]: 600 nM
GI50 [28]: 520 nM
GI50 [29]: 450 nM
GI50 [30]: 530 nM
GI50 [31]: 520 nM
GI50 [32]: 340 nM
GI50 at 72 h [33]: > 10000 nM
GI50 at 72 h [34]: > 10000 nM
Activity [3]: 5%
Activity [4]: 15%
Activity [5]: 29%
Activity [6]: 50%
Activity [7]: 19%
Activity [8]: 16%
Activity [9]: 44%
Activity [10]: 21%
Activity (A2780 [11]): 83.21%
Activity (A2780 [12]): 10.03%
Activity (A2780 [13]): 5.92%
Activity (A2780 [14]): 0.78%
Activity (A2780 [15]): 70.89%
Activity (A2780 [16]): 20.22%
Activity (A2780 [17]): 7.57%
Activity (A2780 [18]): 1.17%
Activity (A2780 [36]): Active
Activity (A2780 [37]): Active

Compound: COc1cc(OC)c(/C=C/S(=O)(=O)Cc2cnc(Cl)cn2)c(OC)c1
GI50 [1]: 4760 nM
GI50 [2]: > 10000 nM

Compound: COc1cc(OC)c(/C=C/S(=O)(=O)Cc2nc(N)ncc2OC)c(OC)c1
GI50 [1]: > 10000 nM
GI50 [2]: > 10000 nM
